# ChEMBL document CHEMBL1128636, “()-1-Azabicyclo[2.2.1]heptan-3-one, O-(3-methyl-5-aryl-2-penten-4-ynyl) oximes: Potent muscarinic agonists” (Bioorg Med Chem Lett, 1995)
# The source made the active and inactive calls. The calls are words filed in the database; no cut-off is given here.
# Key:
# [1] = biological target: Muscarinic acetylcholine receptor
# Description: Binding affinity against muscarinic receptor using radioligand [3H]quinuclidinyl benzilate (QNB) binding assay in membrane preparations of rat neocortex.
# [2] = biological target: Muscarinic acetylcholine receptor; remark: listed apart in the source
# Description: Binding affinity against muscarinic receptor using radioligand [3H]cis-methyldioxolane (CMD) binding assay in membrane preparations of rat neocortex.
# [3] = biological target: T1, Muscarinic acetylcholine receptor M2 (Homo sapiens) (UniProt P08172); conditions: NIH3T3
# T1 sequence (whole entry): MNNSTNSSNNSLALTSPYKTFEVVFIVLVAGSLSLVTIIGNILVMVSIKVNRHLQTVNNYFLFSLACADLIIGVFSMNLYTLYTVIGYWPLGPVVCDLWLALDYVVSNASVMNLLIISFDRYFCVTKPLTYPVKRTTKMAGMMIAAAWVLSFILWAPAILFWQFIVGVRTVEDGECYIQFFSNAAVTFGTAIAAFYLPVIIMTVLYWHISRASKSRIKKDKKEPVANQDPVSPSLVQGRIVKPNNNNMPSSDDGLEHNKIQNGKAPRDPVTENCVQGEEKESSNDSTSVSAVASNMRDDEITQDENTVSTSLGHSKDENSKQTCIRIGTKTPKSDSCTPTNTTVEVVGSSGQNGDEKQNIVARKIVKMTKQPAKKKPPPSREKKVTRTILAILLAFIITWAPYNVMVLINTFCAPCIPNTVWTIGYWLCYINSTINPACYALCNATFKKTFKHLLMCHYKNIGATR
# Description: Agonistic efficacy in human m2 muscarinic receptor expressed with the marker gene beta-galactosidase in NIH 3T3 cells.
# [4] = biological target: T2, Muscarinic acetylcholine receptor M1 (Homo sapiens) (UniProt P11229); conditions: NIH3T3
# T2 sequence (whole entry): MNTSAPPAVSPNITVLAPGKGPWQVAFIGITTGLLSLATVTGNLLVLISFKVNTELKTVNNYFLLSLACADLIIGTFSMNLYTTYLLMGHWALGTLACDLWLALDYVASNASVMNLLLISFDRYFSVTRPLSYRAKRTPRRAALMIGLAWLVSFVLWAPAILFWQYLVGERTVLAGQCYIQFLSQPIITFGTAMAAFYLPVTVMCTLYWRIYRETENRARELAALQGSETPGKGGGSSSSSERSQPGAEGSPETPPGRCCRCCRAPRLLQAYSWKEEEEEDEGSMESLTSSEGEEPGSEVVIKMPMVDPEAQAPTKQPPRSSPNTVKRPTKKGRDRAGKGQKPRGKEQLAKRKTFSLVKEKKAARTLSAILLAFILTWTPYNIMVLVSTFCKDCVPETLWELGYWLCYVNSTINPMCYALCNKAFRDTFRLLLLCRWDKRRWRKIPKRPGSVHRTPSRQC
# Description: Agonistic efficacy in human m1 muscarinic receptor expressed with the marker gene beta-galactosidase in NIH 3T3 cells.
# [5] = biological target: T3, Muscarinic acetylcholine receptor (Rattus norvegicus) (UniProt P08482+P08483+P08485+P08911+P10980); type: tissue-based; conditions: Neocortex; 100 nM
# [6] = biological target: T3, Muscarinic acetylcholine receptor (Rattus norvegicus); type: tissue-based; conditions: Neocortex; 1 uM
# [7] = biological target: Muscarinic acetylcholine receptor; type: tissue-based, Neocortex
# [8] = biological target: T2, Muscarinic acetylcholine receptor M1 (Homo sapiens); assay: Agonistic efficacy in human m1 muscarinic receptor which was expressed with the marker gene beta-galactosidase in NIH 3T3 cells; No data; type: functional, cell-based; conditions: NIH3T3
SMILES,IC50 [1] [nM],IC50 [2] [nM],ED50 [3] [nM],ED50 [4] [nM],other results
C/C(C#Cc1ccccc1)=C\CO/N=C1\CN2CCC1C2 (configuration not stated),1587,12.4,,,
COc1ccc(C#C/C(C)=C/CO/N=C2\CN3CCC2C3)cc1OC (configuration not stated),2380,5.37,1.8,74,
C/C(C#Cc1ccc(Cl)c(Cl)c1)=C/CO/N=C1\CN2CCC1C2 (configuration not stated),,,,,inhibition [5]: 46%; inhibition [6]: 77%
C/C(C#Cc1ccc(C)cc1)=C\CO/N=C1\CN2CCC1C2 (configuration not stated),681,22.16,,,
C/C(C#Cc1cccs1)=C/CO/N=C1/CN2CCC1C2 (configuration not stated),608,4.1,2.5,11.6,
C/C(C#Cc1ccc(F)cc1)=C\CO/N=C1\CN2CCC1C2 (configuration not stated),,,,31.5,
C/C(C#Cc1ccc(F)cc1)=C/CO/N=C1/CN2CCC1C2 (configuration not stated),,,,48,
C/C(C#Cc1ccc(Cl)cc1)=C\CO/N=C1\CN2CCC1C2 (configuration not stated),439,27.12,,,
C#C/C(C)=C/CO/N=C1\CN2CCC1C2 (configuration not stated),,4,11,85,
C/C(C#Cc1cccs1)=C\CO/N=C1\CN2CCC1C2 (configuration not stated),968,4.96,24,0.4,
C/C(C#Cc1ccc(Cl)cc1)=C\CO/N=C1/CN2CCC1C2 (configuration not stated),,,,,inhibition [5]: 57%; inhibition [6]: 52%
COc1cccc(C#C/C(C)=C\CO/N=C2\CN3CCC2C3)c1 (configuration not stated),,,,51.1,
COc1ccc(C#C/C(C)=C\CO/N=C2/CN3CCC2C3)cc1OC (configuration not stated),8547,4.6,0.9,162,
C/C(C#Cc1ccccc1)=C\CO/N=C1/CN2CCC1C2 (configuration not stated),,,,,inhibition [5]: 31%; inhibition [6]: 18%
COc1ccc(C#C/C(C)=C\CO/N=C2/CN3CCC2C3)cc1 (configuration not stated),1992,17,10.7,8.6,
COc1ccc(C#C/C(C)=C\CO/N=C2\CN3CCC2C3)cc1OC (configuration not stated),1245,1.38,,55,
C/C(C#Cc1ccc(F)cc1)=C\CO/N=C1/CN2CCC1C2 (configuration not stated),,,,156,
COc1cccc(C#C/C(C)=C/CO/N=C2\CN3CCC2C3)c1 (configuration not stated),,,,93.2,
C/C(C#Cc1ccccc1)=C/CO/N=C1/CN2CCC1C2 (configuration not stated),181,1.07,4.2,120,
C/C(C#Cc1cccs1)=C/CO/N=C1\CN2CCC1C2 (configuration not stated),21,0.02,2.3,6.2,

SMILES,IC50 [1] [nM],IC50 [2] [nM],ED50 [3] [nM],ED50 [4] [nM],other results
C#C/C(C)=C\CO/N=C1/CN2CCC1C2 (configuration not stated),4234,12,45,30,
C/C(C#Cc1cccs1)=C\CO/N=C1/CN2CCC1C2 (configuration not stated),5593,80.47,,,
COc1cccc(C#C/C(C)=C/CO/N=C2/CN3CCC2C3)c1 (configuration not stated),,,,264,
C/C(C#Cc1ccc(C)cc1)=C/CO/N=C1/CN2CCC1C2 (configuration not stated),383,5.02,4.4,83.3,
COc1ccc(C#C/C(C)=C\CO/N=C2\CN3CCC2C3)cc1 (configuration not stated),,0.1,8.9,8.5,IC50 [7]: 60 nM
COc1ccc(C#C/C(C)=C/CO/N=C2/CN3CCC2C3)cc1 (configuration not stated),,,,,inhibition [5]: 33%; inhibition [6]: 19%
C/C(C#Cc1ccc(Cl)c(Cl)c1)=C/CO/N=C1/CN2CCC1C2 (configuration not stated),,,,,inhibition [5]: 14%; inhibition [6]: 51%
COc1ccc(C#C/C(C)=C/CO/N=C2\CN3CCC2C3)cc1 (configuration not stated),1413,12,,,
C[N+](C)(C)CCOC(N)=O,,,22.8,,
C/C(C#Cc1ccc(Cl)c(Cl)c1)=C\CO/N=C1\CN2CCC1C2 (configuration not stated),171,0.8,940,398,
C#C/C(C)=C\CO/N=C1\CN2CCC1C2 (configuration not stated),,,23.7,12,
C/C(C#Cc1ccc(F)cc1)=C/CO/N=C1\CN2CCC1C2 (configuration not stated),,,,20.9,
C/C(C#Cc1ccc(Cl)cc1)=C/CO/N=C1/CN2CCC1C2 (configuration not stated),81,0.45,2.8,29.1,
C/C(C#Cc1ccc(Cl)c(Cl)c1)=C\CO/N=C1/CN2CCC1C2 (configuration not stated),,,,,inhibition [5]: 49%; inhibition [6]: 39%
C#C/C(C)=C/CO/N=C1/CN2CCC1C2 (configuration not stated),19308,21,,,
C/C(C#Cc1ccc(C)cc1)=C/CO/N=C1\CN2CCC1C2 (configuration not stated),64,0.57,10.7,10.5,
C/C(C#Cc1ccc(Cl)cc1)=C/CO/N=C1\CN2CCC1C2 (configuration not stated),,,,,ED50 [8]: inactive
C/C(C#Cc1ccc(C)cc1)=C\CO/N=C1/CN2CCC1C2 (configuration not stated),,,,,inhibition [5]: 29%; inhibition [6]: 31%
C/C(C#Cc1ccccc1)=C/CO/N=C1\CN2CCC1C2 (configuration not stated),44,0.15,,,
